No end group written: not given here.
What was measured:
[1] = system: cultured T cell from melittin-immunized mice; assay: Murine lymph node proliferation assay ([3H]thymidine uptake); format: cell-based, Balb/c mice; conditions: T cells from mice primed with melittin; 10, 1.0 or 0.1 μg/mL; FIG. 8
Experimental: Femal Balb/c mic (6-8 weeks old; Jackson Laboratory, Bar Harbor, Me.) were obtained and housed at the La Jolla Pharmaceutical animal facility according to National Institutes of Health guidelines. Food and water was provided ad libitum. Balb/c mice were immunized in each hind footpad with 50 μg of melittin molecule in Complete Freund's Adjuvant (CFA) (Sigma Chemical Co., St. Louis, Mo.). Popliteal lymph nodes were harvested aseptically seven days later. Lymph nodes were gently dissociated by teasing the cells through a 50 mesh sieve screen. The single cell suspension was washed in RPMI-1640 (Irvine Scientific, Irvine Calif.) containing glutamine, penicillin and streptomycin. 5×10^5 cells in RPMI medium supplemented with 10% fetal bovine serum (FCS) in quadruplicate wells of round bottom 96-well Corning microtitration plates were-cultured with melittin or a melittin peptide at 10, 1.0 or 0.1 μg/mL. Cells in the positive control wells were cultured with murine interleukin 2 (IL-2) at 100 or 50 U/mL, PHA (phytohemagglutinin) at 1 μg/mL. The negative control wells contained lymph node cells in RPM-1640 and 10% FCS. The cells were cultured for 4 days in a 37° C. incubator with 5% CO2. Each well was pulsed with 1 μCi of [^3H]thymidine (ICN Biochemicals, Costa Mesa, Calif.) for an additional 18 hours. Cells were harvested onto a glass fiber filter mat using a semiautomatic cell harvester (Scatron, Sterling, Va.). Incorporation of [^3H]thymidine was determined by liquid scintillation. The results were expressed as average counts per minute.

peptide-specific pfc = assay: pfc assay: melittin peptide-specific IgG pfc in spleens of mice primed and boosted with melittin; format: in vivo, C57BL/6 mice; conditions: Table 7
Experimental: Female C57BL/6 mice, ages 5 to 8 weeks were purchased from The Jackson Laboratory, Bar Harbor, Me. Animals were maintained and treated accordingly to National Institutes of Health guidelines.
Mice were primed by an i.p. injection containing 5 μg of melittin precipitated on alum and 2×10^9 B. pertussis (Michigan Department of Public Health, Lansing, Mich.) as an adjuvant. The mice were boosted with 5 μg of melittin, i.p., in PBS.
Sheep Red Blood Cells (SRBC) (Colorado Serum Co., Denver, Colo.) were conjugated with melittin-peptide […] using carbodiimide. Fresh SRBC (less than 2 weeks old) were washed four times with cold saline and one time with mannitol (0.35 M mannitol, 0.01 M NaCl). The SRBC were suspended in mannitol to a concentration of 10% (v/v). 100 μL of mannitol containing 30 μg of melittin peptide #3 were added to 1 mL aliquots of 10% SRBC which were then incubated on ice for 10 minutes. 100 μL of a 100 mg/mL solution of 1-ethyl-3 (3-dimethylaminopropyl)-carbodiimide HCl (EDCI) was then added and incubated on ice for 30 minutes. The SRBC were washed twice with Balanced Salt Solution (BSS) (Irvine Scientific Co, Irvine, Calif.) and resuspended to 10% (v/v). Lyophilized guinea pig complement (GIBCO, New York, N.Y.) was reconstituted with BSS and then diluted 1:3 with BSS. One mL of the diluted guinea pig complement was added to 3 mL of conjugated SRBC. Rabbit anti-mouse IgG was added to give a final dilution of 1:100 of the rabbit antiserum. This concentration was predetermined to inhibit all IgM pfc while enhancing the maximum number of IgG pfc. An equal volume of this complement/anti-mouse IgG/SRBC suspension was mixed with a cell suspension of mouse spleen cells taken from a single mouse. 50 μL of each mixture was transferred to the chambers of a Cunningham slide (three chambers per slide). The edges were then sealed with paraffin and incubated at 37° C. for one hour. The number of plaques per chamber was counted with the aid of a dissecting microscope. Each spleen suspension was also assayed using non-conjugated SRBC as a control. The number of viable cells, in each spleen cell suspension, was determined. The number of pfc per 10^6 spleen cells was determined for each chamber and the mean of the triplicates calculated. The number of pfc for non-conjugated SRBC was subtracted from the number of pfc for conjugated SRBC to determine the number of peptide-specific pfc.
Two different tolerogens were constructed to determine if the orientation of the peptide on the PEG conjugate affects its ability to induce tolerance. The peptide was covalently bound to valency platform molecule 3 through its C-terminal end to make melittin conjugate 3. Groups (3/group) of mice primed with melittin were treated, i.p., with conjugates or with saline. Five days later all of the mice, including the non-treated control group, were boosted with […] of melittin. Six days later the mice were sacrificed, their spleens were harvested and the number of peptide specific pfc determined. As-illustrated in Table 8, both orientations were effective in reducing the number of peptide-specific pfc/10^6 spleen cells in mice primed and boosted with the parent protein Melittin.
Three different conjugates, each with a different number of peptides per PEG conjugate, were constructed to determine if the ratio of peptides to PEG molecule was important. Conjugate 1 had only two peptides per PEG conjugate. Another had four peptides per PEG conjugate (Conjugate 2). The third had eight peptides per PEG conjugate (Conjugate 5). Groups (3/group) of mice primed with melittin were treated, i.p., with the different conjugates or with saline. Five days later all of the nice, including the non-treated control group, were boosted with 5 μg of melittin. Six days later, the mice were sacrificed, their spleens were harvested and the number of peptide-specific pfc determined.

With `CC[C@H](C)[C@H](NC(=O)CN)C(=O)NCC(=O)N[C@@H](C)C(=O)N[C@H](C(=O)N[C@@H](CC(C)C)C(=O)N[C@@H](CCCCN)C(=O)N[C@H](C(=O)N[C@@H](CC(C)C)C(=O)N[C@H](C(=O)N[C@H](C(=O)NCC(=O)N[C@@H](CC(C)C)C(=O)N1CCC[C@H]1C(=O)N[C@@H](C)C(=O)N[C@@H](CC(C)C)C(=O)N[C@H](C(=O)N[C@@H](CO)C(=O)N[C@@H](Cc1c[nH]c2ccccc12)C(=O)N[C@H](C(=O)N[C@@H](CCCCN)C(=O)N[C@@H](CCCNC(=N)N)C(=O)N[C@@H](CCCCN)C(=O)N[C@@H](CCCNC(=N)N)C(=O)N[C@@H](CCC(N)=O)C(=O)N[C@@H](CCC(N)=O)C(N)=O)[C@@H](C)CC)[C@@H](C)CC)[C@@H](C)O)[C@@H](C)O)C(C)C)C(C)C` [Melittin, reference compound] the “T cell proliferation (in words)” value [1] was “showed T cell proliferation”.
For “Cys-Ile-Ser-Trp-Ile-Lys-Arg-Lys-Arg-Gln-Gln-Gly (CISWIKRKRQQG; printed: Cys-Ile-Ser-Trp-Ile-Lys-Arg-Lys-Arg-Gln-Gln-Gly) [Melittin Peptide #5]”, the “T cell proliferation (in words)” value [1] was “showed T cell proliferation”.
For IKRKRQQG [Melittin Peptide #1], the “T cell proliferation (in words)” value [1] was “no significant T cell proliferation”.
In the case of “Ile-Ser-Trp-Ile-Lys-Arg-Lys-Arg-Gln-Gln-Gly (ISWIKRKRQQG; printed: Ile-Ser-Trp-Ile-Lys-Arg-Lys-Arg-Gln-Gln-Gly) [Melittin Peptide #4]”, the “T cell proliferation (in words)” value [1] is reported as “showed T cell proliferation”.
With “N,N′-Bis-(3,5-bis-(iodoacetamido)benzoyl) derivative of α,ω-bis-(N-2-aminoethylcarbamoyl)polyethyleneglycol [Compound 3]” the “% Reduction” value (peptide-specific pfc; 250 μg/mouse i.p.) was 67.3%, the “Peptide specific pfc per 10^6 spleen cells (Mean and S.D.)” value (peptide-specific pfc; 250 μg/mouse i.p.) was 957 (298) pfc per 10^6 spleen cells and the “% Reduction” value (peptide-specific pfc; 500 μg/mouse i.p.) was 83.3%. The “Peptide specific pfc per 10^6 spleen cells (Mean and S.D.)” value (peptide-specific pfc; 500 μg/mouse i.p.) was 489 (one mouse) pfc per 10^6 spleen cells, the “% Reduction” value (peptide-specific pfc; 1000 μg/mouse i.p.) was 86.8% and the “Peptide specific pfc per 10^6 spleen cells (Mean and S.D.)” value (peptide-specific pfc; 1000 μg/mouse i.p., boost 5 days later, spleens 6 days after boost) was 386 (85) pfc per 10^6 spleen cells.
SWIKRKRQQG [Melittin Peptide #3] was tested, and the “T cell proliferation (in words)” value [1] was “showed T cell proliferation”.
For WIKRKRQQG [Melittin Peptide #2], the “T cell proliferation (in words)” value [1] was “no significant T cell proliferation”.

From patent publication US7351855B2, “Chemically defined non-polymeric valency platform molecules and conjugates thereof” (La Jolla Pharmaceutical Company, priority 1993, dated 2008)
